For ten compounds, Dmax and DC50 results are on record in patent publication US12257247B2 (Monte Rosa Therapeutics AG, priority 2023, dated 2025).

The target in this test is T1, VAV1 (Homo sapiens, UniProt P15498+Q96SW2).
T1 construct: A heterozygous VAV1 C-terminal HiBiT knock-in pool was generated at Monte Rosa Therapeutics from a clonal Jurkat cell; endogenous in cells; host or cells: Jurkat clone stably expressing LgBiT, homozygous GSPT1-G575N; heterozygous VAV1-HiBiT knock-in pool
The experiment in a line: VAV1 degradation activity, VAV1-HiBiT knock-in Jurkat luminescence assay (Example A, Table 1). It is filed as cell-based. The following applies: VAV1-HiBiT knock-in Jurkat cells, luminescence read at 6 and 24 hours after compound addition; for Dmax: Jurkat. The procedure, abridged: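 Jurkat cells carrying VAV1-HiBiT knock-in, plated in RPMI/10% FBS with Endurazine live-cell substrate and pre-incubated ~16 h at 37° C. Compound dosed from 10 μM stock; luminescence read 6 and 24 h later. Response normalised to plate negative/positive controls, EC50 from 3-parameter logistic fit (hillslope 1).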
Background: HiBiT is a short tag that completes a luciferase, so light tracks the accessible tagged protein.

Setting [1] is: read-out: VAV1 DC50 (nM), class.

Where two headings read alike, the source gives them in different places.

A word on the Dmax: it is the largest share of the target that was removed. As usually defined, the DC50 is the concentration giving 50% degradation. Regarding `O=C1CCC(c2cccc(-c3cnc4c(c3)OCCN4)c2Cl)C(=O)N1` (stereo not shown) [Compound 494, 3-(2-chloro-3-(3,4-dihydro-2H-pyrido[3,2-b][1,4]oxazin-7-yl)phenyl)piperidine-2,6-dione], the Dmax is 61.2% (read-out: VAV1 Dmax %) and 60 to 90% (read-out: VAV1 Dmax %, class). Further, the DC50 (read-out: VAV1 DC50) was 929 nM and the DC50 under setting [1] fell in the range of 100 to 1000 nM.
For `Cn1ccc(CN2C(=O)Cc3cc(-c4cccc(C5CCC(=O)NC5=O)c4Cl)ccc32)n1` (stereo not shown) [Compound 496, 3-(2-chloro-3-(1-((1-methyl-1H-pyrazol-3-yl)methyl)-2-oxoindolin-5-yl)phenyl)piperidine-2,6-dione], the maximal degradation (Dmax) reads like this: (read-out: VAV1 Dmax %) 95.6%; (read-out: VAV1 Dmax %, class) over 90%. The DC50 reads like this: (read-out: VAV1 DC50) 12.7 nM; under setting [1], at most 100 nM.
On the same counts, the results for `CC1(C)Cc2cc(-c3cccc(C4CCC(=O)NC4=O)c3Cl)ccc2N1` (stereo not shown) [Compound 497, 3-(2-chloro-3-(2,2-dimethylindolin-5-yl)phenyl)piperidine-2,6-dione] are 95.8%, over 90%, 18 nM and at most 100 nM.
In the same order, the values of `Cn1ccc(Cn2ncc3cc(-c4cccc(C5CCC(=O)NC5=O)c4Cl)ccc32)n1` (stereo not shown) [Compound 498, 3-(2-chloro-3-(1-((1-methyl-1H-pyrazol-3-yl)methyl)-1H-indazol-5-yl)phenyl)piperidine-2,6-dione] are 98%, over 90%, 11.8 nM and at most 100 nM.
Turning to `Cn1ccc(Cn2ccc3cc(-c4cccc(C5CCC(=O)NC5=O)c4Cl)ccc32)n1` (stereo not shown) [Compound 499, 3-(2-chloro-3-(1-((1-methyl-1H-pyrazol-3-yl)methyl)-1H-indol-5-yl)phenyl)piperidine-2,6-dione], the Dmax is, setting by setting: (read-out: VAV1 Dmax %) 97.9%; (read-out: VAV1 Dmax %, class) over 90%. Besides, the DC50 is 5.45 nM (read-out: VAV1 DC50) and at most 100 nM under setting [1].
`CC1Cc2cc(-c3cccc(C4CCC(=O)NC4=O)c3Cl)ccc2N1` (stereo not shown) [Compound 500, 3-(2-chloro-3-(2-methylindolin-5-yl)phenyl)piperidine-2,6-dione]: the Dmax is 98.5% (read-out: VAV1 Dmax %) and over 90% (read-out: VAV1 Dmax %, class). The DC50 runs as follows: (read-out: VAV1 DC50) 7.51 nM; under setting [1], at most 100 nM.
For the compound `Cn1ccc(CN2C(=O)CCc3cc(-c4cccc(C5CCC(=O)NC5=O)c4Cl)ccc32)n1` (stereo not shown) [Compound 501, 3-(2-chloro-3-(1-((1-methyl-1H-pyrazol-3-yl)methyl)-2-oxo-1,2,3,4-tetrahydroquinolin-6-yl)phenyl)piperidine-2,6-dione], the Dmax runs as follows: (read-out: VAV1 Dmax %) 97.7%; (read-out: VAV1 Dmax %, class) over 90%. In addition, the half-maximal degradation concentration (DC50) (read-out: VAV1 DC50) is 8.19 nM and the DC50 under setting [1] was at most 100 nM.
With `Cn1ccc(CN2C(=O)COc3cc(-c4cccc(C5CCC(=O)NC5=O)c4Cl)ccc32)n1` (stereo not shown) [Compound 502, 3-(2-chloro-3-(4-((1-methyl-1H-pyrazol-3-yl)methyl)-3-oxo-3,4-dihydro-2H-benzo[b][1,4]oxazin-7-yl)phenyl)piperidine-2,6-dione], the Dmax (read-out: VAV1 Dmax %) is 97.8% and the Dmax (read-out: VAV1 Dmax %, class) is over 90%. The DC50 was 3.95 nM (read-out: VAV1 DC50) and at most 100 nM under setting [1].
Turning to `CN1Cc2cc(-c3cccc(C4CCC(=O)NC4=O)c3Cl)ccc2N(Cc2ccn(C)n2)C1=O` (stereo not shown) [Compound 503, 3-(2-chloro-3-(3-methyl-1-((1-methyl-1H-pyrazol-3-yl)methyl)-2-oxo-1,2,3,4-tetrahydroquinazolin-6-yl)phenyl)piperidine-2,6-dione], the Dmax is 90% (read-out: VAV1 Dmax %) and 60 to 90% (read-out: VAV1 Dmax %, class). For the same compound, the DC50 by setting is: (read-out: VAV1 DC50) 4.73 nM; under setting [1], at most 100 nM.
Take `Cn1cnc(CN2C(=O)Cc3cc(-c4cccc(C5CCC(=O)NC5=O)c4Cl)ccc32)c1` (stereo not shown) [Compound 504, 3-(2-chloro-3-(1-((1-methyl-1H-imidazol-4-yl)methyl)-2-oxoindolin-5-yl)phenyl)piperidine-2,6-dione]: the Dmax is 96.7% (read-out: VAV1 Dmax %) and over 90% (read-out: VAV1 Dmax %, class). The DC50 (read-out: VAV1 DC50) is 5.5 nM and the DC50 under setting [1] is at most 100 nM.
